This assay can be described thus: Administration of N-Benzyl Piperazine (appetite suppressant / anti-depressant effect). In kind it is in vivo. Particulars: administration of the compound; no test details given. The text has this: This Patent description is of the use of N-Benzyl Piperazine and Analogues as Quality of Life Enhancers. Administration of N-Benzyl Piperazine has shown to be effective as an appetite suppressant and as a mild anti-depressant. Yeah though it be known that N-Benzyl Piperazine is a CNS stimulant and that stimulants usually are appetite suppressants, it was unknown and unobvious that the binding affinities for the serotonin receptor would be in “perfect” harmony with the norepinephrine receptor to eliminate the side effects of nervousness and the like. It was also unobvious that the increased levels of serotonin and norepinephrine would facilitate individuals in their daily lives to accomplish goals. That is why it is referred to as a Quality of Life Enhancer. Quality of Life Enhancer is defined as a weight loss supplement, appetite suppressant, anti-depressant, cognition enhancer or diet supplement.
Administration of the compounds is usually in the form of their pharmaceutically acceptable acid addition salts. Doses are within the range if 10 mg to 300 mg per day, but usually are in pills of 75 mg two times a day. Once desired effect is attained 75 mg per day is sufficient.

On to `c1ccc(CN2CCNCC2)cc1` [N-Benzyl Piperazine, 1-benzylpiperazine], for which the “effectiveness as a mild anti-depressant” value is listed as “effective”.

The values are drawn from patent publication US20020156084A1, “Use of N-benzyl piperazine and analogues as quality of life enhancers” (priority 2001, published 2002).
